Consider one compound from patent publication US20040038233A1, “Diagnosis kit for mycobacterium species indentification and drug-resistance detection and manufacturing method thereof” (priority 2000, published 2004).

Experiment [1] concerns Mycobacterium tuberculosis. It is filed as cell-based.
In experiment [2] the test system is strains having mutations of 511 (Leu>Pro), 516 (Asp>Tyr), 516 (Asp>Val), and 522 (Ser>Leu). Particulars: strains with mutations 511 (Leu>Pro); cited from earlier work.

With `CO[C@H]1/C=C/O[C@@]2(C)Oc3c(C)c(O)c4c(c3C2=O)C2=NC3(CCN(CC(C)C)CC3)NC2=C(NC(=O)/C(C)=C\C=C\[C@H](C)[C@H](O)[C@@H](C)[C@@H](O)[C@@H](C)[C@H](OC(C)=O)[C@@H]1C)C4=O` [rifabutin, Rifabutin], the drug-susceptibility test result in experiment [1] was “resistance”. Besides, in experiment [2], the resistance classification result is listed as “low-level resistance” and the “rifabutin MIC” value was at most 5 µg/mL.
